ChEMBL document CHEMBL3885861, “Open TG-GATES”

Species on record: Rattus norvegicus
Experiment: Open TG-GATES - Regimen: Daily Repeat
Format: toxicity, organism-based, Sprague-Dawley
Parameters: regimen Daily Repeat, gender Male, age 6 weeks
Conditions: in vivo, po, route gavage; for APTT / Bas / Eos / Fbg / Hb / Ht / Lym / MCH / MCHC / MCV / Mono / Neu / PT / Plat / RBC / Ret / WBC: tissue Blood; for KIDNEY_L / KIDNEY_R / KIDNEY_TOTAL: tissue Kidney; for LIVER: tissue Liver; for ALP / ALT / AST / BUN / CRE / DBIL / GLC / IP / K / LDH / Na / PL / RALB / TBIL / TC / TP / gamma-GTP / TG: tissue Plasma
[1] = 0 mg/kg, 72 h, dose level Control, time 3 day
[2] = 0 mg/kg, […], dose level Control, time 7 day
[3] = 0 mg/kg, […], dose level Control, time 14 day
[4] = 0 mg/kg, […], dose level Control, time 28 day
[5] = 30 mg/kg, 72 h, dose level Low, time 3 day
[6] = 30 mg/kg, […], dose level Low, time 7 day
[7] = 30 mg/kg, […], dose level Low, time 14 day
[8] = 30 mg/kg, […], dose level Low, time 28 day

Which results are given for `Clc1ccccc1CN1CCc2sccc2C1` [TICLOPIDINE]?
TERMINAL_BW [1]: 230.2 g; APTT [1]: 20.4 s; Bas [1]: 0.6%; Eos [1]: 1%; Fbg [1]: 211 mg/dL; Hb [1]: 13.6 g/dL; Ht [1]: 38.2%; Lym [1]: 77.6%; MCH [1]: 21.9 pg; MCHC [1]: 35.8%; MCV [1]: 61.3 fL; Mono [1]: 3.2%; Neu [1]: 17%; PT [1]: 11.7 s; Plat [1]: 127.8 x10_4/uL; RBC [1]: 622.6 x10_4/ul; Ret [1]: 6.2%; WBC [1]: 129 x10_2/uL; KIDNEY_L [1]: 1.1 g; KIDNEY_R [1]: 1 g; KIDNEY_TOTAL [1]: 2.1 g; LIVER [1]: 11.1 g; ALP [1]: 1033.4 IU/L; ALT [1]: 42.8 IU/L; AST [1]: 70.2 IU/L; BUN [1]: 17 mg/dL; CRE [1]: 0.4 mg/dL; DBIL [1]: 0.07 mg/dL; GLC [1]: 205.4 mg/dL; IP [1]: 8.6 mg/dL; K [1]: 4.4 meq/L; LDH [1]: 128.8 IU/L; Na [1]: 141.6 meq/L; PL [1]: 148.6 mg/dL; RALB [1]: 3.4 g/dL; TBIL [1]: 0.1 mg/dL; TC [1]: 69.8 mg/dL; TP [1]: 5.5 g/dL; gamma-GTP [1]: 1.2 IU/L; TERMINAL_BW [2]: 252.6 g; TERMINAL_BW [3]: 313.6 g; TERMINAL_BW [4]: 400.8 g; APTT [2]: 20.7 s; Bas [2]: 1%; Eos [2]: 1%; Fbg [2]: 224.2 mg/dL; Hb [2]: 14 g/dL; Ht [2]: 38.4%; Lym [2]: 81.6%; MCH [2]: 21.3 pg; MCHC [2]: 36.4%; MCV [2]: 58.5 fL; Mono [2]: 2.4%; Neu [2]: 13.4%; PT [2]: 11.4 s; Plat [2]: 127 x10_4/uL; RBC [2]: 658 x10_4/ul; Ret [2]: 4.7%; WBC [2]: 103.5 x10_2/uL; APTT [3]: 20.6 s; Bas [3]: 1%; Eos [3]: 0.8%; Fbg [3]: 220.6 mg/dL; Hb [3]: 14.3 g/dL; Ht [3]: 39.5%; Lym [3]: 78.8%; MCH [3]: 21.1 pg; MCHC [3]: 36.2%; MCV [3]: 58.1 fL; Mono [3]: 2.8%; Neu [3]: 16%; PT [3]: 11.6 s; Plat [3]: 116.1 x10_4/uL; RBC [3]: 681.2 x10_4/ul; Ret [3]: 4.3%; WBC [3]: 121.8 x10_2/uL; APTT [4]: 18.1 s; Bas [4]: 0.8%; Eos [4]: 1%; Fbg [4]: 233.4 mg/dL; Hb [4]: 15.5 g/dL; Ht [4]: 41.4%; Lym [4]: 80.2%; MCH [4]: 20.9 pg; MCHC [4]: 37.5%; MCV [4]: 55.7 fL; Mono [4]: 2%; Neu [4]: 15.4%; PT [4]: 11.5 s; Plat [4]: 106.8 x10_4/uL; RBC [4]: 743.4 x10_4/ul; Ret [4]: 2.7%; WBC [4]: 97 x10_2/uL; KIDNEY_L [2]: 1.1 g; KIDNEY_R [2]: 1 g; KIDNEY_TOTAL [2]: 2.1 g; KIDNEY_L [3]: 1.2 g; KIDNEY_R [3]: 1.2 g; KIDNEY_TOTAL [3]: 2.4 g; KIDNEY_L [4]: 1.4 g; KIDNEY_R [4]: 1.3 g; KIDNEY_TOTAL [4]: 2.7 g; LIVER [2]: 11.3 g; LIVER [3]: 13.2 g; LIVER [4]: 16.3 g; ALP [2]: 1176 IU/L; ALT [2]: 44.8 IU/L; AST [2]: 81.6 IU/L; BUN [2]: 15 mg/dL; CRE [2]: 0.4 mg/dL; DBIL [2]: 0.066 mg/dL; GLC [2]: 195.4 mg/dL; IP [2]: 6.9 mg/dL; K [2]: 3.9 meq/L; LDH [2]: 144.6 IU/L; Na [2]: 141.4 meq/L; PL [2]: 153.4 mg/dL; RALB [2]: 3.4 g/dL; TBIL [2]: 0.1 mg/dL; TC [2]: 77.8 mg/dL; TG [2]: 81.6 mg/dL; TP [2]: 5.7 g/dL; gamma-GTP [2]: 1.2 IU/L; ALP [3]: 840.4 IU/L; ALT [3]: 33.6 IU/L; AST [3]: 70.2 IU/L; BUN [3]: 17.2 mg/dL; CRE [3]: 0.4 mg/dL; DBIL [3]: 0.056 mg/dL; GLC [3]: 215.8 mg/dL; IP [3]: 7.5 mg/dL; K [3]: 4.4 meq/L; LDH [3]: 155.2 IU/L; Na [3]: 142 meq/L; PL [3]: 138 mg/dL; RALB [3]: 3.4 g/dL; TBIL [3]: 0.098 mg/dL; TC [3]: 65.2 mg/dL; TG [3]: 114 mg/dL; TP [3]: 5.6 g/dL; gamma-GTP [3]: 1.2 IU/L; ALP [4]: 742.8 IU/L; ALT [4]: 29.6 IU/L; AST [4]: 58.6 IU/L; BUN [4]: 18.2 mg/dL; CRE [4]: 0.5 mg/dL; DBIL [4]: 0.068 mg/dL; GLC [4]: 214.4 mg/dL; IP [4]: 6.7 mg/dL; K [4]: 3.8 meq/L; LDH [4]: 168.2 IU/L; Na [4]: 141.6 meq/L; PL [4]: 133.2 mg/dL; RALB [4]: 3.6 g/dL; TBIL [4]: 0.1 mg/dL; TC [4]: 63 mg/dL; TG [4]: 126.8 mg/dL; TP [4]: 6.1 g/dL; gamma-GTP [4]: 0.8 IU/L; TERMINAL_BW [5]: 232 g; APTT [5]: 19.7 s; Bas [5]: 0.6%; Eos [5]: 1%; Fbg [5]: 223.6 mg/dL; Hb [5]: 13.6 g/dL; Ht [5]: 38.5%; Lym [5]: 74.2%; MCH [5]: 21.5 pg; MCHC [5]: 35.2%; MCV [5]: 61.1 fL; Mono [5]: 3%; Neu [5]: 20.2%; PT [5]: 11.6 s; Plat [5]: 129 x10_4/uL; RBC [5]: 631.6 x10_4/ul; Ret [5]: 6.2%; WBC [5]: 88 x10_2/uL; KIDNEY_L [5]: 1 g; KIDNEY_R [5]: 1 g; KIDNEY_TOTAL [5]: 2 g; LIVER [5]: 11.3 g; ALP [5]: 1106 IU/L; ALT [5]: 36.4 IU/L; AST [5]: 67.8 IU/L; BUN [5]: 14.8 mg/dL; CRE [5]: 0.4 mg/dL; DBIL [5]: 0.072 mg/dL; GLC [5]: 212 mg/dL; IP [5]: 7.5 mg/dL; K [5]: 4.1 meq/L; LDH [5]: 163.6 IU/L; Na [5]: 142 meq/L; PL [5]: 155.8 mg/dL; RALB [5]: 3.4 g/dL; TBIL [5]: 0.1 mg/dL; TC [5]: 75.4 mg/dL; TG [5]: 100.8 mg/dL; TP [5]: 5.6 g/dL; gamma-GTP [5]: 1 IU/L; TERMINAL_BW [6]: 262.3 g; TERMINAL_BW [7]: 314 g; TERMINAL_BW [8]: 386.1 g; APTT [6]: 18.1 s; Bas [6]: 0.8%; Eos [6]: 1%; Fbg [6]: 231.2 mg/dL; Hb [6]: 14.1 g/dL; Ht [6]: 39.3%; Lym [6]: 76%; MCH [6]: 21.3 pg; MCHC [6]: 35.7%; MCV [6]: 59.7 fL; Mono [6]: 3.2%; Neu [6]: 18.2%; PT [6]: 11.2 s; Plat [6]: 117.8 x10_4/uL; RBC [6]: 658.6 x10_4/ul; Ret [6]: 5.8%; WBC [6]: 104.1 x10_2/uL; APTT [7]: 21.4 s; Bas [7]: 0.8%; Eos [7]: 0.8%; Fbg [7]: 221.2 mg/dL; Hb [7]: 14.1 g/dL; Ht [7]: 39.2%; Lym [7]: 78.6%; MCH [7]: 21.2 pg; MCHC [7]: 36.1%; MCV [7]: 58.7 fL; Mono [7]: 2.6%; Neu [7]: 16.8%; PT [7]: 11.6 s; Plat [7]: 116.9 x10_4/uL; RBC [7]: 668.2 x10_4/ul; Ret [7]: 4.7%; WBC [7]: 124.8 x10_2/uL; APTT [8]: 18 s; Bas [8]: 0.6%; Eos [8]: 1.2%; Fbg [8]: 223.6 mg/dL; Hb [8]: 14.9 g/dL; Ht [8]: 40.4%; Lym [8]: 82%; MCH [8]: 19.9 pg; MCHC [8]: 37%; MCV [8]: 53.7 fL; Mono [8]: 2%; Neu [8]: 13.8%; PT [8]: 11.7 s; Plat [8]: 106 x10_4/uL; RBC [8]: 752.8 x10_4/ul; Ret [8]: 2.9%; WBC [8]: 115.9 x10_2/uL; KIDNEY_L [6]: 1.1 g; KIDNEY_R [6]: 1.1 g; KIDNEY_TOTAL [6]: 2.2 g; KIDNEY_L [7]: 1.3 g; KIDNEY_R [7]: 1.2 g; KIDNEY_TOTAL [7]: 2.5 g; KIDNEY_L [8]: 1.3 g; KIDNEY_R [8]: 1.3 g; KIDNEY_TOTAL [8]: 2.7 g; LIVER [6]: 12.2 g; LIVER [7]: 14.3 g; LIVER [8]: 15.6 g; ALP [6]: 861.2 IU/L; ALT [6]: 38.4 IU/L; AST [6]: 71.8 IU/L; BUN [6]: 15.4 mg/dL; CRE [6]: 0.4 mg/dL; DBIL [6]: 0.068 mg/dL; GLC [6]: 204.4 mg/dL; IP [6]: 7.6 mg/dL; K [6]: 3.9 meq/L; LDH [6]: 167.6 IU/L; Na [6]: 142.4 meq/L; PL [6]: 150.8 mg/dL; RALB [6]: 3.5 g/dL; TBIL [6]: 0.1 mg/dL; TC [6]: 78.4 mg/dL; TP [6]: 5.7 g/dL; gamma-GTP [6]: 1 IU/L; ALP [7]: 887.6 IU/L; ALT [7]: 36.4 IU/L; AST [7]: 68.8 IU/L; BUN [7]: 16.8 mg/dL; CRE [7]: 0.4 mg/dL; DBIL [7]: 0.058 mg/dL; GLC [7]: 225.4 mg/dL; IP [7]: 7.7 mg/dL; K [7]: 4.2 meq/L; LDH [7]: 174.2 IU/L; Na [7]: 142.2 meq/L; PL [7]: 154.8 mg/dL; RALB [7]: 3.3 g/dL; TBIL [7]: 0.1 mg/dL; TC [7]: 74.4 mg/dL; TG [7]: 120.6 mg/dL; TP [7]: 5.7 g/dL; gamma-GTP [7]: 1 IU/L; ALP [8]: 647.4 IU/L; ALT [8]: 37 IU/L; AST [8]: 64.2 IU/L; BUN [8]: 15.8 mg/dL; CRE [8]: 0.5 mg/dL; DBIL [8]: 0.07 mg/dL; GLC [8]: 200.8 mg/dL; IP [8]: 7.2 mg/dL; K [8]: 3.8 meq/L; LDH [8]: 145 IU/L; Na [8]: 142 meq/L; PL [8]: 158.4 mg/dL; RALB [8]: 3.5 g/dL; TBIL [8]: 0.1 mg/dL; TC [8]: 78.4 mg/dL; TG [8]: 133.8 mg/dL; TP [8]: 5.8 g/dL; gamma-GTP [8]: 1 IU/L
